{"source": "PubChem BioAssay (NCI)", "experiment_in_all_cases": "NCI tumour cell line growth inhibition, 48 h", "key": {"PC-3 prostate": {"test_system": "PC-3 prostate"}, "K-562 leukemia": {"test_system": "K-562 leukemia"}, "OVCAR-5 ovarian": {"test_system": "OVCAR-5 ovarian"}, "SNB-75 CNS": {"test_system": "SNB-75 CNS"}, "UACC-62 melanoma": {"test_system": "UACC-62 melanoma"}, "CAKI-1 renal": {"test_system": "CAKI-1 renal"}, "RPMI-8226 leukemia": {"test_system": "RPMI-8226 leukemia"}, "IGROV1 ovarian": {"test_system": "IGROV1 ovarian"}, "HT29 colon": {"test_system": "HT29 colon"}, "UO-31 renal": {"test_system": "UO-31 renal"}, "MALME-3M melanoma": {"test_system": "MALME-3M melanoma"}, "NCI/ADR-RES ovarian": {"test_system": "NCI/ADR-RES ovarian"}, "EKVX NSCLC": {"test_system": "EKVX NSCLC"}, "LOX IMVI melanoma": {"test_system": "LOX IMVI melanoma"}, "NCI-H522 lung": {"test_system": "NCI-H522 lung"}, "OVCAR-3 ovarian": {"test_system": "OVCAR-3 ovarian"}, "MDA-MB-435": {"test_system": "MDA-MB-435"}, "NCI-H460 lung": {"test_system": "NCI-H460 lung"}, "SK-MEL-28 melanoma": {"test_system": "SK-MEL-28 melanoma"}, "TK-10 renal": {"test_system": "TK-10 renal"}, "HOP-92 NSCLC": {"test_system": "HOP-92 NSCLC"}, "A549 NSCLC": {"test_system": "A549 NSCLC"}, "A498 renal": {"test_system": "A498 renal"}, "M14 melanoma": {"test_system": "M14 melanoma"}, "SK-MEL-5 melanoma": {"test_system": "SK-MEL-5 melanoma"}, "T-47D breast": {"test_system": "T-47D breast"}, "NCI-H226 lung": {"test_system": "NCI-H226 lung"}, "UACC-257 melanoma": {"test_system": "UACC-257 melanoma"}, "BT-549 breast": {"test_system": "BT-549 breast"}}, "note": "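1) Cells in 96-well plates. 2) Compound, 48 h, 5 concentrations. 3) Linear interpolation between surrounding doses. 4) Unreached endpoint = highest concentration. GI50 = concentration required for 50% inhibition of growth. TGI is the concentration that stops growth completely.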"}
{"smiles": "O=C(NCCCc1cn[nH]c1)c1ccc(-c2ccncc2)c(C#Cc2ccc(F)cc2)c1", "values": [{"measurement": "GI50", "setting": "PC-3 prostate", "value": "< 0.01", "unit": "µM"}, {"measurement": "TGI", "setting": "PC-3 prostate", "value": 76.8, "unit": "µM"}, {"measurement": "GI50", "setting": "K-562 leukemia", "value": "< 0.01", "unit": "µM"}, {"measurement": "TGI", "setting": "K-562 leukemia", "value": "> 100", "unit": "µM"}, {"measurement": "GI50", "setting": "OVCAR-5 ovarian", "value": 0.122, "unit": "µM"}, {"measurement": "TGI", "setting": "OVCAR-5 ovarian", "value": "> 100", "unit": "µM"}, {"measurement": "GI50", "setting": "SNB-75 CNS", "value": 8.82, "unit": "µM"}, {"measurement": "TGI", "setting": "SNB-75 CNS", "value": "> 100", "unit": "µM"}, {"measurement": "GI50", "setting": "UACC-62 melanoma", "value": 16.5, "unit": "µM"}, {"measurement": "TGI", "setting": "UACC-62 melanoma", "value": "> 70.1", "unit": "µM"}, {"measurement": "GI50", "setting": "CAKI-1 renal", "value": 6.92, "unit": "µM"}, {"measurement": "TGI", "setting": "CAKI-1 renal", "value": "> 100", "unit": "µM"}, {"measurement": "GI50", "setting": "RPMI-8226 leukemia", "value": "< 0.0113", "unit": "µM"}, {"measurement": "TGI", "setting": "RPMI-8226 leukemia", "value": 9.54, "unit": "µM"}, {"measurement": "GI50", "setting": "IGROV1 ovarian", "value": 0.0282, "unit": "µM"}, {"measurement": "TGI", "setting": "IGROV1 ovarian", "value": "> 100", "unit": "µM"}, {"measurement": "GI50", "setting": "HT29 colon", "value": "< 0.01", "unit": "µM"}, {"measurement": "TGI", "setting": "HT29 colon", "value": 36.7, "unit": "µM"}, {"measurement": "GI50", "setting": "UO-31 renal", "value": 3.4, "unit": "µM"}, {"measurement": "TGI", "setting": "UO-31 renal", "value": "> 67.2", "unit": "µM"}, {"measurement": "GI50", "setting": "MALME-3M melanoma", "value": 10.2, "unit": "µM"}, {"measurement": "TGI", "setting": "MALME-3M melanoma", "value": 54.2, "unit": "µM"}, {"measurement": "GI50", "setting": "NCI/ADR-RES ovarian", "value": "< 0.0116", "unit": "µM"}, {"measurement": "TGI", "setting": "NCI/ADR-RES ovarian", "value": "> 100", "unit": "µM"}, {"measurement": "GI50", "setting": "EKVX NSCLC", "value": 8.39, "unit": "µM"}, {"measurement": "TGI", "setting": "EKVX NSCLC", "value": "> 100", "unit": "µM"}, {"measurement": "GI50", "setting": "LOX IMVI melanoma", "value": 0.913, "unit": "µM"}, {"measurement": "TGI", "setting": "LOX IMVI melanoma", "value": 53.6, "unit": "µM"}, {"measurement": "GI50", "setting": "NCI-H522 lung", "value": "< 0.0406", "unit": "µM"}, {"measurement": "TGI", "setting": "NCI-H522 lung", "value": 53.2, "unit": "µM"}, {"measurement": "GI50", "setting": "OVCAR-3 ovarian", "value": 6.27, "unit": "µM"}, {"measurement": "TGI", "setting": "OVCAR-3 ovarian", "value": "> 100", "unit": "µM"}, {"measurement": "GI50", "setting": "MDA-MB-435", "value": "< 0.01", "unit": "µM"}, {"measurement": "TGI", "setting": "MDA-MB-435", "value": "> 87.8", "unit": "µM"}, {"measurement": "GI50", "setting": "NCI-H460 lung", "value": 0.145, "unit": "µM"}, {"measurement": "TGI", "setting": "NCI-H460 lung", "value": 41.9, "unit": "µM"}, {"measurement": "GI50", "setting": "SK-MEL-28 melanoma", "value": 14.4, "unit": "µM"}, {"measurement": "TGI", "setting": "SK-MEL-28 melanoma", "value": "> 100", "unit": "µM"}, {"measurement": "GI50", "setting": "TK-10 renal", "value": 12.8, "unit": "µM"}, {"measurement": "TGI", "setting": "TK-10 renal", "value": "> 100", "unit": "µM"}, {"measurement": "GI50", "setting": "HOP-92 NSCLC", "value": 12.7, "unit": "µM"}, {"measurement": "TGI", "setting": "HOP-92 NSCLC", "value": 87, "unit": "µM"}, {"measurement": "GI50", "setting": "A549 NSCLC", "value": 0.481, "unit": "µM"}, {"measurement": "TGI", "setting": "A549 NSCLC", "value": "> 100", "unit": "µM"}, {"measurement": "GI50", "setting": "A498 renal", "value": 20.1, "unit": "µM"}, {"measurement": "TGI", "setting": "A498 renal", "value": "> 68.5", "unit": "µM"}, {"measurement": "GI50", "setting": "M14 melanoma", "value": "< 0.01", "unit": "µM"}, {"measurement": "TGI", "setting": "M14 melanoma", "value": "> 54.7", "unit": "µM"}, {"measurement": "GI50", "setting": "SK-MEL-5 melanoma", "value": 2.3, "unit": "µM"}, {"measurement": "TGI", "setting": "SK-MEL-5 melanoma", "value": 16.6, "unit": "µM"}, {"measurement": "TGI", "setting": "T-47D breast", "value": 11, "unit": "µM"}, {"measurement": "GI50", "setting": "NCI-H226 lung", "value": 6.2, "unit": "µM"}, {"measurement": "TGI", "setting": "NCI-H226 lung", "value": 51.3, "unit": "µM"}, {"measurement": "GI50", "setting": "UACC-257 melanoma", "value": 17.6, "unit": "µM"}, {"measurement": "TGI", "setting": "UACC-257 melanoma", "value": "> 100", "unit": "µM"}, {"measurement": "GI50", "setting": "BT-549 breast", "value": 0.369, "unit": "µM"}, {"measurement": "TGI", "setting": "BT-549 breast", "value": 60.9, "unit": "µM"}]}
